For one assay, the target named is T1, D(4) dopamine receptor (Homo sapiens, UniProt P21917).
T1 sequence (P21917 whole entry): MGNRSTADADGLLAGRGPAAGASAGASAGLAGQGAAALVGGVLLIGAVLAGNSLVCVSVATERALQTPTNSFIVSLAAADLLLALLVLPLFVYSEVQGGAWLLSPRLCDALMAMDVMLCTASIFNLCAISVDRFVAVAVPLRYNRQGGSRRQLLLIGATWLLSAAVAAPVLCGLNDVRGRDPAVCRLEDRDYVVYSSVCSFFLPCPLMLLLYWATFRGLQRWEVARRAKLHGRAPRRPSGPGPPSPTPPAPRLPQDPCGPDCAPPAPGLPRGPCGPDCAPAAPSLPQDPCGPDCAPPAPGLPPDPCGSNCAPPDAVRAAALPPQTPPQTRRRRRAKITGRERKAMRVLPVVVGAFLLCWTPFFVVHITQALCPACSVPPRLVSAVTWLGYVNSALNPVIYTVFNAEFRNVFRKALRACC

The target of assay [1] is T2, Adrenergic receptor alpha-1 (Rattus norvegicus, UniProt P15823+P23944+P43140).
T2 sequence (P15823 whole entry): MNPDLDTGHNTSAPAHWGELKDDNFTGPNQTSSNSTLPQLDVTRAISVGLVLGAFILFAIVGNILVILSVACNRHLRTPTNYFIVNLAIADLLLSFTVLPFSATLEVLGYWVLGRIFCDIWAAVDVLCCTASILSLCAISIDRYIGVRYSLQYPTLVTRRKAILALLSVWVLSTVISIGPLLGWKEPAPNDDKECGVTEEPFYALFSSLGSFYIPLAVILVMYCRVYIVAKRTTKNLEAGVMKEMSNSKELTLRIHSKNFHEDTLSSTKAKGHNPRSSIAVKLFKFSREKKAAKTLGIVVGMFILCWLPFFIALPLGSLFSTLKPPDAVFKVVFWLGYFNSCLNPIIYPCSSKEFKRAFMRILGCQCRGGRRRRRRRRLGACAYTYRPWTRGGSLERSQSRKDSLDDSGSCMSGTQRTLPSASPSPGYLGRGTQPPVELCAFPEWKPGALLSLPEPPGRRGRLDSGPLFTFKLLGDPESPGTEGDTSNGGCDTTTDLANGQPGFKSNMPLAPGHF
T2 sequence (P23944 whole entry): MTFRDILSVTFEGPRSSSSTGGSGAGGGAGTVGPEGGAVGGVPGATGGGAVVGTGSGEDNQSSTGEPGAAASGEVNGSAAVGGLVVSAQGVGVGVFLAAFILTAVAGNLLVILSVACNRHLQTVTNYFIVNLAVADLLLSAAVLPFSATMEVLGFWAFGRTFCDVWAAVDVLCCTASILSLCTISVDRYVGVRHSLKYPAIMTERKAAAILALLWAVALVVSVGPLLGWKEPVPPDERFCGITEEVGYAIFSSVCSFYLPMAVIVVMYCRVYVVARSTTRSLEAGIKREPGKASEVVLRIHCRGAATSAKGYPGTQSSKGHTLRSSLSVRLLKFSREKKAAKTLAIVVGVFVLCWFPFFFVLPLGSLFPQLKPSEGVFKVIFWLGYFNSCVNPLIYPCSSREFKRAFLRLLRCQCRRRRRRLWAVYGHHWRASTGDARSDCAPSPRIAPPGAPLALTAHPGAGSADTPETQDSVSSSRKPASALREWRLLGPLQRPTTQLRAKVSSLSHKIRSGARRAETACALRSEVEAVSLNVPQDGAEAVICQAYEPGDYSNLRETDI
T2 sequence (P43140 whole entry): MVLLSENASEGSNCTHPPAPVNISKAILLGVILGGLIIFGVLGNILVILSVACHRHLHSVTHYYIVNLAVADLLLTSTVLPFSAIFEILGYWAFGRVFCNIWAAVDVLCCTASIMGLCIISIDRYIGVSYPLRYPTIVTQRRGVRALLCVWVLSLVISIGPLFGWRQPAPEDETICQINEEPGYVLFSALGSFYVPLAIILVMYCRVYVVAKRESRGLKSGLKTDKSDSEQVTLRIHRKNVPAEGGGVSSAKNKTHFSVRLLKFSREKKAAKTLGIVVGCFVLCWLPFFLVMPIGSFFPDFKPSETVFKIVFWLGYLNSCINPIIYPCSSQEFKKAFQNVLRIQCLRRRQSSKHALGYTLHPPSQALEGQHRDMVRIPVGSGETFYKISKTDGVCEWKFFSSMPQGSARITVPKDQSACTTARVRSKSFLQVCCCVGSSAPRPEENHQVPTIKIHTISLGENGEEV
The assay can be described thus: Binding affinity towards Alpha-1 adrenergic receptor was determined by competitive displacement assays using rat brain homogenate with [3H]prazosin as the competitive ligand. It is filed as tissue-based.

In assay [2] the test system is Rattus norvegicus. The assay can be described thus: Minimum effective dose required for significant dose dependent reduction of amphetamine-induced locomotor activity in male Sprague-Dawley rats on subcutaneous administration (30 min prior to receiving amphetamine 0.5 mg/kg). It is filed as functional. As to conditions: sc, read-out: MED.
For assay [3], the species on record is Rattus norvegicus. The assay is described as follows: Minimum effective dose required in the catalepsy experiment in rats; showed no significant effect at this dose. Format: functional. As to conditions: read-out: MED.
The species entered for assay [4] is Rattus norvegicus. The assay can be described thus: Minimum effective dose required in the catalepsy experiment in rats. Format: functional. The conditions noted are these: read-out: MED.

Some results are limits rather than exact numbers.

Description for D(4) dopamine receptor: Binding affinity towards Dopamine type 4 receptor was determined by competitive displacement assays using [3H]-YM 09151 as the competitive ligand

`C[C@@H]1Cc2ccccc2N1C(=O)CN1CCN(Cc2cc(F)c(Cl)cc2F)CC1`: the figures for the Ki (on D(4) dopamine receptor; in assay [1]) were 6 nM and over 10000 nM, respectively.
With `COc1ccc(Cl)cc1CN1CCN(CC(=O)N2c3ccccc3C[C@H]2C)CC1`, the Ki on D(4) dopamine receptor was found to be 5 nM; in assay [1] it was 980 nM.
Regarding `C[C@@H]1Cc2ccccc2N1C(=O)CN1CCN(Cc2cccc(F)c2)CC1`, the inhibition constant Ki at D(4) dopamine receptor came out at 6 nM.
As for `COC(=O)[C@@H]1Cc2ccccc2N1C(=O)CN1CCN(Cc2ccc(C)cc2)CC1`, the Ki on D(4) dopamine receptor is 8 nM; in assay [1], 100 nM.
In the same order, the values of `O=C(O)[C@@H]1Cc2ccccc2N1C(=O)CN1CCN(Cc2ccc(Cl)cc2)CC1` are 1760 nM and 453 nM.
In the case of `COc1cc(Cl)ccc1CN1CCN(CC(=O)N2c3ccccc3C[C@H]2C)CC1`, the Ki on D(4) dopamine receptor was found to be 3 nM; in assay [1], 1060 nM. Further, the minimal effective dose in the assay on Rattus norvegicus [2] was over 4 mg/kg.
For the compound `COC(=O)[C@@H]1Cc2ccccc2N1C(=O)CN1CCN(Cc2ccc(Cl)cc2)CC1`, the inhibitory constant (Ki) on D(4) dopamine receptor was 5 nM; in assay [1] it was over 1000 nM.
On D(4) dopamine receptor, `O=C(NCc1ccccc1)[C@@H]1Cc2ccccc2N1C(=O)CN1CCN(Cc2ccc(Cl)cc2)CC1` registered a Ki of over 1000 nM.
At D(4) dopamine receptor, `CC(C)c1ccc(Cl)cc1CN1CCN(CC(=O)N2c3ccccc3C[C@H]2C)CC1` displayed a Ki of 10 nM. This lies in the double-digit nanomolar range.
With `C[C@@H]1Cc2ccccc2N1C(=O)CN1CCN(Cc2ccc(Cl)cc2)CC1`, the minimal effective dose in the assay with Rattus norvegicus [2] is over 8 mg/kg.
Regarding `C[C@@H]1Cc2ccccc2N1C(=O)CN1CCN(Cc2ccccc2F)CC1`, the Ki on D(4) dopamine receptor was 27 nM; in assay [1], over 10000 nM.
On the same counts, the results for `Cc1ccc(CN2CCN(CC(=O)N3c4ccccc4C[C@H]3C)CC2)cc1F` are 2 nM and 807 nM.
With `COc1ccc(OC)c(CN2CCN(CC(=O)N3c4ccccc4C[C@H]3C)CC2)c1`, the Ki on D(4) dopamine receptor is 29 nM; in assay [1] it was 1660 nM.
Consider `C[C@@H]1Cc2ccccc2N1C(=O)CN1CCN(Cc2ccc(F)c(F)c2Cl)CC1`, for which the results for the Ki (at D(4) dopamine receptor; in assay [1]) were 12 nM and over 1000 nM, respectively.
`Cc1ccc(CN2CCN(CC(=O)N3c4ccccc4C[C@H]3C)CC2)cc1`: the minimal effective dose in the assay with Rattus norvegicus [2] is over 4 mg/kg.
As to `CC[C@@H]1Cc2ccccc2N1C(=O)CN1CCN(Cc2ccc(C)cc2)CC1`, the Ki on D(4) dopamine receptor came out at 3 nM; in assay [1] it was 1330 nM.
In the same order, the values of `C[C@@H]1Cc2ccccc2N1C(=O)CN1CCN(Cc2ccc3c(c2)OCO3)CC1` are 3 nM and 1130 nM.
In the case of `CCOc1ccc(Cl)cc1CN1CCN(CC(=O)N2c3ccccc3C[C@H]2C)CC1`, the Ki on D(4) dopamine receptor is 11 nM; in assay [1], 1090 nM.
In assay [1], `C=C[C@@H]1Cc2ccccc2N1C(=O)CN1CCN(Cc2ccc(Cl)cc2)CC1` had a Ki of 2180 nM.
Consider `CN1CCN(C2=Nc3cc(Cl)ccc3Nc3ccccc32)CC1` [CLOZAPINE], for which the minimal effective dose in the assay with Rattus norvegicus [2] is 1 mg/kg; in the assay filed under Rattus norvegicus [3], over 40 mg/kg.
For `O=C(CCCN1CCC(O)(c2ccc(Cl)cc2)CC1)c1ccc(F)cc1` [HALOPERIDOL], the minimal effective dose in the assay filed under Rattus norvegicus [4] worked out at 0.5 mg/kg; with Rattus norvegicus [2], 0.06 mg/kg.

As a reminder, the Ki is a dissociation constant, usually derived from enzyme kinetics or from competition with a known ligand. A higher Ki goes with a looser hold on the target.

(Values after ChEMBL document CHEMBL1134937, “Indoline and piperazine containing derivatives as a novel class of mixed D(2)/D(4) receptor antagonists. Part 2: asymmetric synthesis and biological evaluation” (Bioorg Med Chem Lett, 2002).)
